The test system of data set [1] is Hep-3B human hepatocellular carcinoma. In words: Cell viability, cellular ATP levels (Vialight HS). The format is cell-based. The settings on record: Hep3B, Table 5, liver, tumor, ATP levels 72 h post-treatment. An excerpt: (§1) The following cell lines were used: A549 human non-small cell lung carcinoma; C33A human cervical carcinoma; H1299 human non-small cell lung carcinoma; Hep-3B human hepatocellular carcinoma; MIA-Paca-2 human pancreatic carcinoma; PC-3 human prostatic adenocarcinoma (American Type Culture Collection, Manassas, Va., USA); HMEC normal human mammary epithelial cells; HUVEC normal human umbilical vein endothelial cells; and NHBE normal human bronchial epithelial cells (Cambrex Bio Science, Rockland, Me., USA). […] HMEC, HUVEC and NHBE cell lines were cultured in MEGM, EGM-2 and BEGM media, respectively (Cambrex Bio Science, Rockland, Me., USA). The cell lines were plated in 96-well microtitre plate at a density of 2–4×10^3 cells per well. After 16 hours, the cells were treated with various concentrations of Compound 50a or Compound 50b. Stock solutions of Compound 50a and Compound 50b, respectively, were prepared in dimethyl sulfoxide at a concentration of 5 mM. Serial dilutions were prepared in RPMI, 10% FBS and 2% DMSO and then added to the cells. The total DMSO in the cell cultures was 1%. […] The IC50s were determined using a best-fit sigmoidal dose response curve with variable slope.

Data set [2] relates to MIA-Paca-2 human pancreatic carcinoma. The experiment in a line: Cell viability, cellular ATP levels (Vialight HS). Type of data set: cell-based. As to conditions: Table 5, MIA-Paca-2, pancreas, tumor, ATP levels 72 h post-treatment.
Text: as §1

Data set [3] relates to NHBE normal human bronchial epithelial cells. The experiment in a line: Cell viability, cellular ATP levels (Vialight HS). The format is cell-based. As to conditions: Table 5, ATP levels 72 h post-treatment.
Text: as §1

Data set [4] relates to A549 human non-small cell lung carcinoma. In words: Cell viability, cellular ATP levels (Vialight HS). The settings on record: Table 5, A549, NSCL-adrenocarinoma, tumor, ATP levels 72 h post-treatment. The format is cell-based.
Text: as §1

In data set [5] the test system is PC-3 human prostatic adenocarcinoma. In words: Cell viability, cellular ATP levels (Vialight HS). The settings on record: Table 5, PC-3, prostate, tumor, ATP levels 72 h post-treatment. Type of data set: cell-based.
Text: as §1

Data set [6] deals with HUVEC normal human umbilical vein endothelial cells. In words: Cell viability, cellular ATP levels (Vialight HS). As to conditions: Table 5, ATP levels 72 h post-treatment. The format is cell-based.
Text: as §1

Data set [7] has as its system HMEC normal human mammary epithelial cells. The experiment in a line: Cell viability, cellular ATP levels (Vialight HS). Type of data set: cell-based. The settings on record: Table 5, breast epithelial, ATP levels 72 h post-treatment.
Text: as §1

For data set [8], the system named is SW480 human colon carcinoma cancer cells. The experiment in a line: SW480 colon carcinoma xenograft in SCID mice. The format is in vivo, CB17 SCID/SCID female mice. As to conditions: i.v. 10 mg/kg once a day for five days. The procedure: The resultant mice are a model for a human having colon carcinoma cancer.
The SW480 human colon carcinoma cancer cells were maintained in RPMI supplemented with 10% inactivated fetal bovine serum and 1% penicillin-streptomycin-L-Glutamine, under 5% CO2 at 37° C., and passaged twice a week. The cells were grown at a confluency lower than 70% and then collected with Trypsin (Bio-Whittaker, Md., USA). The cells were then centrifuged and washed twice using phosphate buffered saline solution (PBS) and resuspended in PBS at 1×10^6 cells per 100 μl. Viability was examined by staining with Trypan Blue and only flasks with cell viability of greater than 95% were used for in vivo studies.
(§2) SW480 cells were transplanted subcutaneously into the flank of female CB 17 SCID/SCID mice. Each mouse was inoculated with a suspension of 1×10^6 tumor cells per 100 μL on day zero. The following five treatment groups of ten mice each were used: (a) a negative control group treated with intravenous (i.v.) injection of vehicle, (b) a group treated with i.v. injection of a Compound 50, (c) a group treated with i.v. injection of a Compound 50a, (d) a group treated with i.v. injection of Compound 50b, (e) a group treated with i.v. injection of Compound 74a.
(§3) Treatment started on day twelve after SW480 cells transplantation and Compounds 50, 50a, 50b and 74a were administered i.v. once daily for five consecutive days at a dose of 10, 10, 10 and 50 mg/kg, respectively. Compound 50, 50a and 50b were prepared as a working solution of 1.5 mg/mL in a vehicle solution of 20% Cremaphor EL (Sigma, St. Louis, Miss., USA), and 10% Ethanol. Compound 74a was prepared as a working solution of 5 mg/mL in a vehicle solution of 5% Dextrose (Abbot Laboratories, QC, Canada). The negative control groups were treated with vehicle solution of 20% Cremaphor EL and 10% Ethanol alone.
(§4) The mice were weighed and the tumors measured on day 12 and every 2 to 3 days after treatment commenced. Observations continued for 23 days after initial tumor implantation. The changes in body weight and in the calculated tumor volume were plotted (FIGS. 9 and 10). Statistical analysis was performed using GraphPad Prism (GraphPad Software Inc., San Diego, Calif.). Two-way ANOVA was used to determine how the treatment affected tumor growth over time. Following the two-way ANOVA, post-tests were performed using the Benferroni method to determine the statistical difference between the mean tumor-size of the two groups being compared on every day that the tumors were measured.

The nature of data set [9]: Body weight of SW480 tumor-bearing mice. The format is in vivo, CB17 SCID/SCID female mice. As to conditions: i.v. once daily for five days; 10 mg/kg (50, 50a, 50b), 50 mg/kg (74a). The procedure: as §2, §3, §4
In data set [10] the test system is C33A human cervical carcinoma. In words: Cell viability, cellular ATP levels (Vialight HS). The settings on record: C-33-A, Table 5, C33A, cervix, tumor, ATP levels 72 h post-treatment, read-out: IC50. The format is cell-based.
Text: as §1
(§5) The selected tumor cell lines included C33A human cervical carcinoma and H1299 human non-small cell lung carcinoma (American Type Culture Collection, Manassas, Va., USA). The cell lines were cultured in RPMI 1640 media supplemented with 10% FBS (Hyclone, Logan, Vt., USA), 100 U/mL penicillin, 100 μg/mL streptomycin and 2 mM L-glutamine (Invitrogen, Carlsbad, Calif., USA). The cell lines were plated in 96-well microtitre plate at a density of 2–4×10^3 cells per well. After 16 hours, the cells were treated with various concentrations of compound 66, 67, 68, 69 and 70, respectively. Stock solutions of compounds 66, 67, 68, 69 and 70 were prepared in dimethyl sulfoxide at a concentration of 5 mM. Serial dilutions were prepared in RPMI, 10% FBS and 2% DMSO and then added to the cells. The total DMSO on the cells was 1%. […] The IC50s were determined using a best-fit sigmoidal dose response curve with variable slope.

In data set [11] the test system is H1299 human non-small cell lung carcinoma. In words: Cell viability, cellular ATP levels (Vialight HS). Type of data set: cell-based. The settings on record: NCI-H1299, Table 5, H1299, NSCL-LC carcinoma, tumor, ATP levels 72 h post-treatment vs untreated cells, read-out: IC50.
Text: as §1, §5

For data set [12], the target named is T1, human placental alkaline phosphatase (Homo sapiens, UniProt P05187).
T1 construct: purchased Sigma-Aldrich Canada Ltd
T1 sequence (P05187 23-506 limits assumed): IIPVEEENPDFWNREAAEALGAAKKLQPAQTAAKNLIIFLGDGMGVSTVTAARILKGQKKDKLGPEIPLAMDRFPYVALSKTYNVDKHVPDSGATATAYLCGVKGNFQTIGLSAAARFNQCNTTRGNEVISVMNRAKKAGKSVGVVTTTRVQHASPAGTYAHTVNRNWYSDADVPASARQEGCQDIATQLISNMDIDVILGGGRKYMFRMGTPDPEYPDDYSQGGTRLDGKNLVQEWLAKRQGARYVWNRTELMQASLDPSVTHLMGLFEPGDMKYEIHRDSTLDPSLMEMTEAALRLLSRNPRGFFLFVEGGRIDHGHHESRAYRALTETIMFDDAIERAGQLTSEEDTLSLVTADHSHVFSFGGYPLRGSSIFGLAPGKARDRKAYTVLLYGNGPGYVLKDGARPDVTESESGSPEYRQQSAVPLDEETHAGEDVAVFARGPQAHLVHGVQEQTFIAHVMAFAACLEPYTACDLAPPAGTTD
In words: Conversion of phosphate pro-drug by alkaline phosphatase in vitro. As to conditions: 0.02 U/100 μL enzyme, 15 μM pro-drug, pH 7.4, within thirty minutes. Type of data set: in vitro ADME. The procedure: The conversion into biologically active drug of phosphate pro-drugs by human placental alkaline phosphatase was measured in vitro using purified enzymes. Purified human placental alkaline phosphatase (Sigma-Aldrich Canada Ltd. Oakville, Ontario, Canada) was added at a concentration of 0.02 U/100 μL to a solution containing 15 μM of phosphate pro-drug, 20 mM Tris-HCl, pH 7.4 and 0.9% NaCl. The solutions were incubated for 10, 20 or 30 minutes. A solution containing 15 μM of phosphate pro-drug, 20 mM Tris-HCl, pH 7.4 and 0.9% NaCl was used a reference (time=0 minutes). To each solution, an equal volume (100 μL) of ice-cold acetonitrile was added, and then the mixture was vortexed and transferred to glass vials. A standard concentration curve of the pro-drug and the drug was prepared in 10 mM Tris-HCl, pH 7.4, 0.45% NaCl and 50% acetonitrile. All samples were immediately analyzed by LC/MS.

Data set [13] in a line: Solubility by filtration and LC/MS. Type of data set: physicochemical. As to conditions: in water (printed for Compound 74). The procedure:
To determine whether a compound is soluble in a solution, the solution was filtered on […] polytetrafluoroethylene filters (Whatman Inc. Clifton, N.J., USA) and the compound concentration in the filtrate was measured by LC/MS and compared to the expected concentration. If the concentration of the compound in the filtrate was equal +/−15% to the expected concentration, the compound was judged to be soluble in the solution.
The detection of Compound 74 or Compound 50 by LC/MS was carried out using the HPLC system that consisted of a Waters Alliance quaternary gradient HPLC pump (Waters, Milford, Mass., USA) and a ZQ2000 single quadrupole mass spectrometer (Waters, Milford, Mass., USA). The column used was XTerra MS C18: 50×2.1 mm, […] column at 20° C. Samples were injected and separated under the following conditions: The mobile phase “A” consisted of 5 mM ammonium formate, 0.1% formic acid in water and mobile phase “B” consisted of 5 mM ammonium formate, 0.1% formic acid in methanol. A linear gradient was applied as follows: 0 to 1 min, 94% “A” and 6% “B”; 1 to 4 min, 6% to 100% “B”; 4 to 8 min 100% “B”; 8 to 9 min, 100% “B” to 6% “B”; 9 to 12 min, 94% “A” and 6% “B”. […] Compounds were detected at m/z equal to their respective molecular weight plus 1.

This note sets out measurements from US7230139B2, “Diterpenoid compounds, compositions thereof and their use as anti-cancer or anti-fungal agents” (priority 2004, dated 2007).

For `COc1ccc2c(c1)[C@@]1(C)C=CC(=O)C(C)(C)C1=C(O)C2=O` [Compound 50a], the IC50 was found to be 970 nM in data set [1]; 660 nM in data set [2]; 1200 nM in data set [3]; 630 nM in [4]; 370 nM in [5]; 1700 nM in data set [6]. The figures for the IC50 in [7], in data set [10] and in data set [11] were 2300 nM, 500 nM and 550 nM, respectively. The “Tumor growth compared to vehicle” value in [8] was “significant reduction (p<0.001)”. In [9], the “Change in body weight” value is listed as “non-significant change in body weight”.
As to `COc1ccc2c(c1)[C@]1(C)C=CC(=O)C(C)(C)C1=C(O)C2=O` [Compound 50b], the IC50 in [1] worked out at 770 nM; in data set [2] it was 250 nM; in [3] it was 1200 nM; in data set [4] it was 580 nM; in [5], 350 nM; in [6], 1300 nM. Also, the IC50 in [7] was 2100 nM; in data set [10], 450 nM; in data set [11], 230 nM. Moreover, the “Tumor growth compared to vehicle” value in [8] is given as “significant reduction (p<0.001)”. The “Change in body weight” value in data set [9] is on record as “non-significant change in body weight”.
For the compound `COc1ccc2c(c1)C1(C)C=CC(=O)C(C)(C)C1=C(OP(=O)(O)O)C2=O` (racemic) [Compound 74], the “Conversion of pro-drug into drug Compound 50” value in [12] was “convert a fraction of the pro-drug”. This compound showed a solubility in [13] of at least 10000 µg/mL.
